According to ChEMBL document CHEMBL6078640, “Trivalent oleanolic acid-glucose conjugates: Synthesis and efficacy against Influenza A virus” (Eur J Med Chem, 2024):
Activity calls are given as the source filed them. The calls are words filed in the database; no cut-off is given here.

Legend:
Influenza A virus [1] = experiment: Antiviral activity against Influenza A virus H1N1 infected in MDCK cells assessed as reduction in cytopathic effect at 100 uM pretreated with cells followed by viral infection and measured after 40 hrs by fluorescence based microplate reader analysis; format: functional, organism-based
Influenza A virus [2] = experiment: Antiviral activity against influenza A virus A/WSN/33 (H1N1) in MDCK cells assessed as reduction in M2 expression preincubated with cells at 24 hrs followed by compound addition and measured at 0 to 10 hrs post infection by time of addition assay; format: functional, organism-based; settings: time 0-10 hrs
Influenza A virus [3] = experiment: Antiviral activity against Influenza A virus H1N1 infected in MDCK cells assessed as inhibition of viral growth at 100 uM relative to control; format: functional
[4] = Cytotoxicity against dog MDCK cells assessed as reduction in cell viability incubated for 40 hrs by celltiter-glo assay; format: toxicity, cell-based, Canis lupus familiaris
Influenza A virus [5] = experiment: Antiviral activity against Influenza A virus H1N1 (A/Guangdong maonan/6WL197/2020); format: functional, organism-based
Influenza A virus [6] = experiment: Antiviral activity against influenza A virus A/WSN/33 (H1N1) in MDCK cells assessed as reduction in M mRNA level preincubated with cells at 24 hrs followed by compound addition and measured at 0 to 2 hrs post infection by RT-qPCR analysis; format: functional, organism-based; settings: time 0-2 hrs
MDCK [7] = experiment: Cytotoxicity against dog MDCK cells assessed as reduction in cell viability at 100 uM incubated for 40 hrs by celltiter-glo assay; format: toxicity, cell-based, Canis lupus familiaris
Influenza A virus [8] = experiment: Antiviral activity against influenza A virus A/WSN/33 (H1N1) in MDCK cells assessed as reduction in NP expression preincubated with cells at 24 hrs followed by compound addition and measured at 0 to 10 hrs post infection by time of addition assay; format: functional, organism-based; settings: time 0-10 hrs
[9] = Toxicity in female BALB/c kunming mouse infected with Influenza A virus A/WSN/33(H1N1) assessed as reduction in liver injury at 6.25 to 12.5 mg/kg/day, administered intranasally once per day for 7 days starting from 24 hrs post-viral infection by H and E staining based analysis; format: organism-based; settings: in vivo, inhaled_or_intranasal, 168 h, dose 6.25-12.5 mg/kg/day, time 7 day
Influenza A virus [10] = experiment: Antiviral activity against Influenza A virus A/WSN/33(H1N1) infected in female BALB/c kunming mouse assessed as reduction in severe pneumonia at 12.5 mg/kg/day, administered intranasally once per day for 7 days starting from 24 hrs post-viral infection and measured daily; format: functional, organism-based; settings: time 7.0 day
Influenza A virus [11] = experiment: Antiviral activity against influenza A virus A/WSN/33(H1N1) infected in MDCK cells assessed as inhibition of viral-induced cytopathic effect pretreated with cells followed by viral infection and measured after 40 hrs by fluorescence based microplate reader analysis; format: functional, organism-based
[12] = Toxicity in female BALB/c kunming mouse infected with Influenza A virus A/WSN/33(H1N1) assessed as reduction in kidney injury at 6.25 to 12.5 mg/kg/day, administered intranasally once per day for 7 days starting from 24 hrs post-viral infection by H and E staining based analysis; format: organism-based; settings: in vivo, inhaled_or_intranasal, 168 h, dose 6.25-12.5 mg/kg/day, time 7 day
Influenza B virus = experiment: Antiviral activity against Influenza B virus […] (B/Darwin/58/2019/Yamagata); format: functional, organism-based
Influenza A virus [13] = experiment: Antiviral activity against Influenza A virus A/WSN/33(H1N1) infected in female BALB/c kunming mouse assessed as delayed the median time of animal death at 0.125 mg/kg, administered intranasally once per day for 7 days starting from 24 hrs post-viral infection and measured daily; format: functional, organism-based; settings: time 7.0 day
Influenza A virus [14] = experiment: Antiviral activity against influenza A virus A/WSN/33 (H1N1) in MDCK cells assessed as reduction in NP expression preincubated with cells at 24 hrs followed by compound addition and measured at 0 to 2 hrs post infection by time of addition assay; format: functional, organism-based; settings: time 0-2 hrs
Influenza A virus [15] = experiment: Antiviral activity against Influenza A virus H5N1 (A/Indonesia/5/2005 (IBCDC-RG2)); format: functional, organism-based
Influenza A virus [16] = experiment: Antiviral activity against Influenza A virus A/WSN/33(H1N1) infected in female BALB/c kunming mouse assessed as protection of mouse at 0.25 mg/kg, administered intranasally once per day for 7 days starting from 24 hrs post-viral infection and measured daily; format: functional, organism-based; settings: time 7.0 day
Influenza A virus [17] = experiment: Antiviral activity against influenza A virus A/WSN/33 (H1N1) in MDCK cells assessed as reduction in NP mRNA level preincubated with cells at 24 hrs followed by compound addition and measured at 0 to 2 hrs post infection by RT-qPCR analysis; format: functional, organism-based; settings: time 0-2 hrs
[18] = Selectivity index, ratio of CC50 for dog MDCK cells to IC50 for influenza A virus A/WSN/33(H1N1) infected in MDCK cells; format: toxicity, cell-based; settings: read-out: Selectivity Index
Influenza A virus [19] = experiment: Antiviral activity against Influenza A virus A/WSN/33(H1N1) infected in female BALB/c kunming mouse assessed as reduction in immune cell infiltration at 12.5 mg/kg/day, administered intranasally once per day for 7 days starting from 24 hrs post-viral infection and measured daily; format: functional, organism-based; settings: time 7.0 day
MDCK [20] = experiment: Inhibition of Hemagglutinin in Influenza A virus H1N1 assessed as inhibition of virus-induced aggregation of chicken erythrocytes pretreated with virus followed by chicken RBC addition and measured after 30 mins by Hemagglutinin inhibition assay; format: cell-based; settings: dose 0-1.94 µM
Influenza A virus [21] = experiment: Antiviral activity against influenza A virus A/WSN/33 (H1N1) in MDCK cells assessed as reduction in M2 expression preincubated with cells at 24 hrs followed by compound addition and measured at 0 to 2 hrs post infection by time of addition assay; format: functional, organism-based; settings: time 0-2 hrs
Influenza A virus [22] = experiment: Antiviral activity against Influenza A virus A/WSN/33(H1N1) infected in female BALB/c kunming mouse assessed as reduction in lung index at 12.5 mg/kg/day, administered intranasally once per day for 7 days starting from 24 hrs post-viral infection and measured daily; format: functional; settings: time 7 day
Influenza A virus [23] = experiment: Antiviral activity against influenza A virus A/WSN/33 (H1N1) in MDCK cells assessed as reduction in M mRNA level preincubated with cells at 24 hrs followed by compound addition and measured at 0 to 10 hrs post infection by RT-qPCR analysis; format: functional, organism-based; settings: time 0-10 hrs
Influenza A virus [24] = experiment: Antiviral activity against influenza A virus A/WSN/33 (H1N1) in MDCK cells assessed as reduction in NP mRNA level preincubated with cells at 24 hrs followed by compound addition and measured at 0 to 10 hrs post infection by RT-qPCR analysis; format: functional, organism-based; settings: time 0-10 hrs
Influenza A virus [25] = experiment: Antiviral activity against Influenza A virus A/WSN/33(H1N1) infected in female BALB/c kunming mouse assessed as reduction in lung index at 6.25 mg/kg/day, administered intranasally once per day for 7 days starting from 24 hrs post-viral infection and measured daily; format: functional; settings: time 7 day
Influenza A virus [26] = experiment: Antiviral activity against Influenza A virus A/WSN/33(H1N1) infected in female BALB/c kunming mouse assessed as improvement in body weight administered intranasally once per day for 7 days and measured daily; format: functional, organism-based; settings: dose 6.25-12.5 mg/kg/day, time 7.0 day

**Q.** Which Activity (Influenza A virus [1]) does the source give for `CC1(C)CC[C@]2(C(=O)NCc3cn([C@@H]4O[C@H](CO)[C@@H](O)[C@H](O)[C@H]4O)nn3)CC[C@]3(C)C(=CC[C@@H]4[C@@]5(C)CC[C@H](OC(=O)NCc6cn(Cc7cc(Cn8cc(CNC(=O)O[C@H]9CC[C@]%10(C)[C@H]%11CC=C%12[C@@H]%13CC(C)(C)CC[C@]%13(C(=O)NCc%13cn([C@@H]%14O[C@H](CO)[C@@H](O)[C@H](O)[C@H]%14O)nn%13)CC[C@@]%12(C)[C@]%11(C)CC[C@H]%10C9(C)C)nn8)cc(Cn8cc(CNC(=O)O[C@H]9CC[C@]%10(C)[C@H]%11CC=C%12[C@@H]%13CC(C)(C)CC[C@]%13(C(=O)NCc%13cn([C@@H]%14O[C@H](CO)[C@@H](O)[C@H](O)[C@H]%14O)nn%13)CC[C@@]%12(C)[C@]%11(C)CC[C@H]%10C9(C)C)nn8)c7)nn6)C(C)(C)[C@@H]5CC[C@]43C)[C@@H]2C1` here?
**A.** Active

**Q.** And the Activity (Influenza A virus [2])?
**A.** Active; Compound Exerts Antiviral Effect At Early Stage Of Infection

**Q.** What about the inhibition at 100 µM (Influenza A virus [3]) of the same molecule?
**A.** > 75%

**Q.** And the CC50 at 40 h [4]?
**A.** > 100000 nM

**Q.** And the IC50 (Influenza A virus [5])?
**A.** 5240 nM

**Q.** And the Activity (Influenza A virus [6])?
**A.** Active; Compound Exerts Antiviral Effect At Early Stage Of Infection

**Q.** What about the Activity (MDCK [7]) of the same molecule?
**A.** Non-toxic

**Q.** And the Activity (Influenza A virus [8])?
**A.** Active; Compound Exerts Antiviral Effect At Early Stage Of Infection

**Q.** What about the Activity [9] of the same molecule?
**A.** Non-toxic

**Q.** And the Activity (Influenza A virus [10])?
**A.** Active

**Q.** And the IC50 (Influenza A virus [11])?
**A.** 470 nM

**Q.** What about the Activity [12] of the same molecule?
**A.** Non-toxic

**Q.** And the IC50 (Influenza B virus)?
**A.** 2390 nM

**Q.** And the Activity (Influenza A virus [13])?
**A.** Active

**Q.** What about the Activity (Influenza A virus [14]) of the same molecule?
**A.** Active; Compound Exerts Antiviral Effect At Early Stage Of Infection

**Q.** And the Activity (Influenza A virus [15])?
**A.** inactive

**Q.** And the Activity (Influenza A virus [16])?
**A.** Active; Protection In 2 Out Of 4 Mouse Was Observed

**Q.** And the Activity (Influenza A virus [17])?
**A.** Active; Compound Exerts Antiviral Effect At Early Stage Of Infection

**Q.** And the selectivity ratio [18]?
**A.** > 213

**Q.** What about the Activity (Influenza A virus [19]) of the same molecule?
**A.** Active

**Q.** What about the inhibition (MDCK [20]) of the same molecule?
**A.** Dose-dependent-effect

**Q.** And the Activity (Influenza A virus [21])?
**A.** Active; Compound Exerts Antiviral Effect At Early Stage Of Infection

**Q.** What about the Activity_index (Influenza A virus [22]) of the same molecule?
**A.** 1.4

**Q.** What about the Activity (Influenza A virus [23]) of the same molecule?
**A.** Active; Compound Exerts Antiviral Effect At Early Stage Of Infection

**Q.** What about the Activity (Influenza A virus [24]) of the same molecule?
**A.** Active; Compound Exerts Antiviral Effect At Early Stage Of Infection

**Q.** And the Activity_index (Influenza A virus [25])?
**A.** 1.7

**Q.** What about the Activity (Influenza A virus [26]) of the same molecule?
**A.** Dose-dependent-effect
